From ChEMBL document CHEMBL1201862, “PubChem BioAssay data set” (2004)
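Values below derive from 48-hour exposures of cells grown in 96-well plates, with endpoints linearly interpolated between the two concentrations bracketing the appropriate inhibition level. At the GI50, growth is halved.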 Active and inactive are the calls of the source. Rule as the data show it: active = GI50 up to about 1.1 µM and inactive = higher.

How the values were obtained:
Experiment in all cases: NCI tumour cell line growth inhibition, 48 h
[1] = test system: HOP-18
[2] = test system: KM-20L2
[3] = test system: LXFL 529
[4] = test system: DMS-114
[5] = test system: SNB-78
[6] = test system: M19-MEL
[7] = test system: DLD-1
[8] = test system: DMS-273
[9] = test system: RXF 631

SMILES	GI50 [1]	GI50 [2]	GI50 [3]	GI50 [4]	GI50 [5]	GI50 [6]	GI50 [7]	GI50 [8]	GI50 [9]
O=Nc1ccc(O)c2ncccc12	11.3 µM (inactive)	23.9 µM (inactive)	2.38 µM (inactive)	3.9 µM (inactive)	2.43 µM (inactive)	4.25 µM (inactive)	9.57 µM (inactive)	2.55 µM (inactive)	–
CN(C)c1nc(N(C)C)sc(=O)n1	> 100 µM (inactive)	> 100 µM (inactive)	> 100 µM (inactive)	> 100 µM (inactive)	–	> 100 µM (inactive)	> 100 µM (inactive)	> 100 µM (inactive)	–
COc1ccc(/C=C2/CSC/C(=C/c3ccc(OC)c(OC)c3)C2=O)cc1OC	6.65 µM (inactive)	2.3 µM (inactive)	1.93 µM (inactive)	–	2.12 µM (inactive)	2.14 µM (inactive)	0.46 µM (active)	1.03 µM (active)	1.99 µM (inactive)
N#CC(/C(CCCC(=O)Nc1cccc([N+](=O)[O-])c1)=N/NC(=O)c1cc2ccccc2cc1O)c1ccccc1 (configuration not stated)	18.3 µM (inactive)	38 µM (inactive)	27.2 µM (inactive)	20.2 µM (inactive)	–	17.9 µM (inactive)	36.7 µM (inactive)	–	29.8 µM (inactive)
CC(=O)C1=C(C)NC2C=CC=CN12 (configuration not stated)	> 100 µM (inactive)	> 100 µM (inactive)	–	> 100 µM (inactive)	> 100 µM (inactive)	> 100 µM (inactive)	> 100 µM (inactive)	> 100 µM (inactive)	–
O=C1C=C(O)c2nc(O)ccc2C1=O	–	> 100 µM (inactive)	–	–	> 100 µM (inactive)	> 100 µM (inactive)	> 100 µM (inactive)	> 100 µM (inactive)	–
C#C[C@@]1(O)CCCC2=CC(=O)C[C@]21C	> 100 µM (inactive)	–	> 100 µM (inactive)	> 100 µM (inactive)	–	> 100 µM (inactive)	> 100 µM (inactive)	–	–
CCS/C(=N\c1ccccc1)SC	> 100 µM (inactive)	> 100 µM (inactive)	> 100 µM (inactive)	> 100 µM (inactive)	> 100 µM (inactive)	> 100 µM (inactive)	> 100 µM (inactive)	> 100 µM (inactive)	> 100 µM (inactive)
O=C(OCc1nc2ccc(Br)cc2c(=O)n1-c1ccccc1)c1ccccc1O	–	> 100 µM (inactive)	35.4 µM (inactive)	–	> 100 µM (inactive)	> 100 µM (inactive)	67.1 µM (inactive)	–	–
CCc1cccc(C(C)C)c1C1C(=O)C(=O)N(c2nc3ccccc3s2)C(=O)C1=O	> 100 µM (inactive)	> 100 µM (inactive)	> 100 µM (inactive)	> 100 µM (inactive)	> 100 µM (inactive)	> 100 µM (inactive)	> 100 µM (inactive)	> 100 µM (inactive)	> 100 µM (inactive)
O=C(NN1C(=O)C(Cl)C1c1ccc(O)cc1)c1ccccc1O (configuration not stated)	15.9 µM (inactive)	–	17.9 µM (inactive)	14 µM (inactive)	21.7 µM (inactive)	21.7 µM (inactive)	15.8 µM (inactive)	12.9 µM (inactive)	–
CCCN(CCC)C1=Nc2ccccc2-n2cnnc2C1	–	> 100 µM (inactive)	> 100 µM (inactive)	> 100 µM (inactive)	> 100 µM (inactive)	> 100 µM (inactive)	–	> 100 µM (inactive)	–
COc1cccc2ccc(C(=O)c3ccccc3)nc12	–	> 100 µM (inactive)	77.8 µM (inactive)	–	> 100 µM (inactive)	–	> 100 µM (inactive)	> 100 µM (inactive)	–
COC1=CC(C2c3cc4c(cc3[C@@H](Nc3ccc([N+](=O)[O-])cc3)C3COC(=O)[C@H]23)OCO4)=CC(=O)C1=O (some centres not stated)	53.6 µM (inactive)	9.1 µM (inactive)	16.4 µM (inactive)	2.57 µM (inactive)	28 µM (inactive)	6.4 µM (inactive)	14 µM (inactive)	0.697 µM (active)	2.29 µM (inactive)
